Read-outs that look alike come from different tables or passages of the source.
Assays:
[1] = Exposure to moist air (RH 95%, room temperature), XRPD before/after; type: physicochemical
Experimental: FIG. 4 is a series of XRPD patterns, showing NaCDC Form A before (thick line) and after (thin line) 15 hours of exposure to RH 95% at room temperature. FIG. 8 is a series of XRPD patterns, showing NaCDC Form B before (thick line) and after (thin line) 15 hours of exposure to RH 95% at room temperature.

[2] = type: physicochemical
Experimental: HPLC analysis was carried out on an Agilent 1260 Infinity chromatograph, using a Hichrom C18 column 100×4.6 mm, 3.5 m, at 40° C. Method details were as follows:
Around 10 mg of NaCDC Form B was weighed into clear HPLC vials and the selected solvents (500 μL) were added to the vials. Experiments ST07, 09, 11, 13, 15, 17, 19 and 21 were kept stirring for 24 h at 30° C. and 60° C., while samples were taken after 4 h and 24 h for HPLC analysis. Subsequently, the same experiments were evaporated at 30° C. for 24 h under reduced pressure (21-22 mbar), and the solids were evaluated by HPLC and XRPD. Separately, the solutions and slurries from experiments ST10, 12, 14, 16, 18, 20 and 22 were stirred for 24 h at 30° C. and 60° C. (no samples were taken) and evaporated at 60° C. for 24 h under reduced pressure (20-21 mbar). The recovered materials were sampled for HPLC and XRPD analyses.

[3] = Polymorph screening: slurry with sonication; type: physicochemical; conditions: sonicated 15 minutes then 5° C. for 30 minutes, 6 cycles
Experimental: Around 15 mg of NaCDC Form B was weighed into HPLC vials and 0.4 mL of corresponding solvents were added at RT. The slurries were sonicated for 15 minutes and then left to cool at 5° C. for 30 minutes—this cycle was repeated 6 times. At the end of the sixth cycle, all experiments were air-dried on filter paper and the recovered solids were analyzed by XRPD. Based on the XRPD data, some experiments were analyzed by HPLC.

[4] = Polymorph screening: vapor diffusion onto solids; type: physicochemical
Experimental: Around 20 mg of NaCDC Form B were weighed into 1.6 mL HPLC vials. Each of the aforementioned vials was inserted individually into 40 mL vessels containing initially 0.5 mL of the corresponding solvent. The vessels were isolated from light and atmosphere and allowed to stand for 12 days, in a closed cabinet at 25° C. or in an oven at 50° C. After the experimental time, the majority of the samples remained solids/wet solids (experiments VDS02-12), which were harvested and analyzed by XRPD. […] All solids were analyzed by XRPD, and depending on the results obtained, some experiments were also analyzed by HPLC and TG/DSC.

[5] = ST13: Methanol, solution, 60° C.
[6] = ST17: n-Heptane, slurry, 60° C.

With `C[C@H](CCC(=O)[O-])[C@H]1CC[C@H]2[C@@H]3[C@H](O)C[C@@H]4C[C@H](O)CC[C@]4(C)[C@H]3CC[C@]12C.[Na+]` [Form B, sodium chenodeoxycholate] the “effect of exposure to moist air (XRPD)” value ([1]; 15-20 hours at 95% humidity) was “eventual amorphization”, the “loss of crystallinity on moist air exposure compared with Form A” value ([1]; 95% humidity) was “markedly slower” and the “HPLC purities throughout the stability tests” value [2] was at least 86.1%. The “form stability in slurry experiments (XRPD)” value [2] was “stable”, the “stability in solution and/or slurry” value [2] was “remained stable” and the “HPLC (%) at 212 nm (after evap.)” value ([2]; ST07: Water solution RT 24 h, evaporated at 30° C. 24 h) was 97.8%. The “XRPD (after evap.)” value ([2]; ST07: Water solution RT, evaporated at 30° C.) was “Am”, the “HPLC (%) at 212 nm (before evap.) 4 h” value ([2]; ST07: Water, solution, RT) was 100.0% and the “HPLC (%) at 212 nm (before evap.) 24 h” value ([2]; ST07: Water, solution, RT) was 96.2%. For the same compound, the “HPLC (%) at 212 nm (after evap.)” value ([2]; ST08: Water solution RT 24 h, evaporated at 60° C. 24 h, listed as NaCDC Form B) was 84.6%, the “HPLC (%) at 212 nm (after evap.)” value ([2]; ST08: Water solution RT 24 h, evaporated at 60° C. 24 h, listed as starting material) was “around 84.5%” and the “XRPD (after evap.)” value ([2]; ST08: Water solution RT, evaporated at 60° C.) was “Am”. For the same compound, the “HPLC (%) at 212 nm (after evap.)” value ([2]; ST09: Water solution 60° C. 24 h, evaporated at 30° C. 24 h) was 95.7%, the “XRPD (after evap.)” value ([2]; ST09: Water solution 60° C., evaporated at 30° C.) was “Am” and the “HPLC (%) at 212 nm (before evap.) 4 h” value ([2]; ST09: Water, solution, 60° C.) was 100.0%. The “HPLC (%) at 212 nm (before evap.) 24 h” value ([2]; ST09: Water, solution, 60° C.) was 96.6%, the “HPLC (%) at 212 nm (after evap.)” value ([2]; ST10: Water solution 60° C. 24 h, evaporated at 60° C. 24 h) was 90.0% and the “XRPD (after evap.)” value ([2]; ST10: Water solution 60° C., evaporated at 60° C.) was “Am”. For the same compound, the “HPLC (%) at 212 nm (after evap.)” value ([2]; ST11: Methanol solution RT 24 h, evaporated at 30° C. 24 h) was 87.1%, the “XRPD (after evap.)” value ([2]; ST11: Methanol solution RT, evaporated at 30° C.) was “Am” and the “HPLC (%) at 212 nm (before evap.) 4 h” value ([2]; ST11: Methanol, solution, RT) was 91.4%. The “HPLC (%) at 212 nm (before evap.) 24 h” value ([2]; ST11: Methanol, solution, RT) was 93.5%, the “HPLC (%) at 212 nm (after evap.)” value ([2]; ST12: Methanol solution RT 24 h, evaporated at 60° C. 24 h) was 90.5% and the “XRPD (after evap.)” value ([2]; ST12: Methanol solution RT, evaporated at 60° C.) was “Am”. For the same compound, the “HPLC (%) at 212 nm (after evap.)” value ([2]; ST13: Methanol solution 60° C. 24 h, evaporated at 30° C. 24 h) was “no peak~”, the “XRPD (after evap.)” value ([2]; ST13: Methanol solution 60° C., evaporated at 30° C.) was “Am” and the “HPLC (%) at 212 nm (before evap.) 4 h” value [2, 5] was 94.8%. For the same compound, the “HPLC (%) at 212 nm (before evap.) 24 h” value [2, 5] was 90.3%, the “HPLC (%) at 212 nm (after evap.)” value ([2]; ST14: Methanol solution 60° C. 24 h, evaporated at 60° C. 24 h) was 92.5% and the “XRPD (after evap.)” value ([2]; ST14: Methanol solution 60° C., evaporated at 60° C.) was “Am”. The “HPLC (%) at 212 nm (after evap.)” value ([2]; ST15: n-Heptane slurry RT 24 h, evaporated at 30° C. 24 h) was “no peak~”, the “HPLC (%) at 212 nm (before evap.) 4 h” value ([2]; ST15: n-Heptane, slurry, RT) was 89.9% and the “HPLC (%) at 212 nm (before evap.) 24 h” value ([2]; ST15: n-Heptane, slurry, RT) was 100.0%. For the same compound, the “HPLC (%) at 212 nm (after evap.)” value ([2]; ST16: n-Heptane slurry RT 24 h, evaporated at 60° C. 24 h, listed as NaCDC Form B) was 84.5%, the “HPLC (%) at 212 nm (after evap.)” value ([2]; ST16: n-Heptane slurry RT 24 h, evaporated at 60° C. 24 h, listed as starting material) was “around 84.5%” and the “HPLC (%) at 212 nm (after evap.)” value ([2]; ST17: n-Heptane slurry 60° C. 24 h, evaporated at 30° C. 24 h) was 93.6%. The “HPLC (%) at 212 nm (before evap.) 4 h” value [2, 6] was 91.5%, the “HPLC (%) at 212 nm (before evap.) 24 h” value [2, 6] was 91.4% and the “HPLC (%) at 212 nm (after evap.)” value ([2]; ST18: n-Heptane slurry 60° C. 24 h, evaporated at 60° C. 24 h) was 90.4%. The “HPLC (%) at 212 nm (after evap.)” value ([2]; ST19: MEK slurry RT 24 h, evaporated at 30° C. 24 h) was 74.1%, the “HPLC (%) at 212 nm (before evap.) 4 h” value ([2]; ST19: MEK, slurry, RT) was 100.0% and the “HPLC (%) at 212 nm (before evap.) 24 h” value ([2]; ST19: MEK, slurry, RT) was 97.7%. The “HPLC (%) at 212 nm (after evap.)” value ([2]; ST20: MEK slurry RT 24 h, evaporated at 60° C. 24 h) was 86.1%, the “HPLC (%) at 212 nm (after evap.)” value ([2]; ST21: MEK slurry 60° C. 24 h, evaporated at 30° C. 24 h) was 55.9% and the “HPLC (%) at 212 nm (before evap.) 4 h” value ([2]; ST21: MEK, slurry, 60° C.) was 65.2%. For the same compound, the “HPLC (%) at 212 nm (before evap.) 24 h” value ([2]; ST21: MEK, slurry, 60° C.) was 94.5%, the “HPLC (%) at 212 nm (after evap.)” value ([2]; ST22: MEK slurry 60° C. 24 h, evaporated at 60° C. 24 h) was 86.6% and the “HPLC purity (%) at 212 nm” value ([3]; SLS03, Ethyl acetate (EtOAc)) was 90.42%. For the same compound, the “HPLC purity (%) at 212 nm” value ([3]; SLS08, EtOH:MeCN (1:1 v/v)) was 79.23%, the “HPLC purity (%) at 212 nm” value ([3]; SLS09, EtOH:n-Heptane (1:1 v/v)) was 89.68% and the “HPLC purity (%) at 212 nm” value ([4]; VDS01, Methanol (MeOH) vapor, 25° C., 12 days, fine suspension, evap. at 30° C., 21 mbar, overnight) was 89.99%. For the same compound, the XRPD ([4]; VDS03, Ethyl acetate (EtOAc) vapor, diffusion at 25° C. after 12 days) was “SM, P.O”, the “HPLC purity (%) at 212 nm” value ([4]; VDS05, Ethanol (EtOH) vapor, diffusion at 50° C. after 12 days) was 92.11% and the XRPD ([4]; VDS06, 2-Propanol (2-PrOH) vapor, diffusion at 50° C. after 12 days) was “SM, P.O”. The XRPD ([4]; VDS08, Diisopropyl ether vapor, diffusion at 50° C. after 12 days) was “SM, P.O”, the “HPLC purity (%) at 212 nm” value ([4]; VDS09, 2,2,2-Trifluoroethanol (TFE) vapor, diffusion at 50° C. after 12 days, slurry air-dried on filter paper) was 90.89% and the XRPD ([4]; VDS11, Acetonitrile (MeCN) vapor, diffusion at 50° C. after 12 days) was “SM, P.O”. The “HPLC purity (%) at 212 nm” value ([4]; VDS12, Methyl ethyl ketone (MEK) vapor, diffusion at 50° C. after 12 days) was 93.65%.
